Laboratory results published in patent publication US20240336608A1, “IL4I1 INHIBITORS AND METHODS OF USE” (Merck Sharp & Dohme LLC, priority 2023, published 2024).

Molecular target: T1, recombinant IL4I1 (Homo sapiens, UniProt Q96RQ9)
T1 construct: purchased R&D Systems 5684-AO-020
T1 sequence (Q96RQ9 22-567): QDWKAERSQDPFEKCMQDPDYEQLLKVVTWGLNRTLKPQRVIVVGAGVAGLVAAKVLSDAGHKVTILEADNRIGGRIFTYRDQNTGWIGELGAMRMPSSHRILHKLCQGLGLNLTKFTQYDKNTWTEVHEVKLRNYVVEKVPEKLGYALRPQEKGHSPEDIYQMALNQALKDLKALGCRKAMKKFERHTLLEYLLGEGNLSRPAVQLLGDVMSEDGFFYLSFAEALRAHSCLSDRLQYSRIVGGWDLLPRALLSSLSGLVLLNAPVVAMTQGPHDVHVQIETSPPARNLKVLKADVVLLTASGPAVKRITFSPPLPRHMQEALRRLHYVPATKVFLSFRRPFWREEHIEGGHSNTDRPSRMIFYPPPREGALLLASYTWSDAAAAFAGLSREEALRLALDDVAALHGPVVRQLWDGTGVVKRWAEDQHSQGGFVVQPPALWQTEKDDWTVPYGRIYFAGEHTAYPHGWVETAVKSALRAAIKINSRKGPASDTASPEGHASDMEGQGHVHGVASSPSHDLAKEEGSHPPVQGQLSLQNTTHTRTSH
Assay: IL4I1 Enzymatic Assay (Amplex Red/HRP coupled detection of H2O2, fluorescence)
Format: biochemical
Conditions: 1 nM recombinant IL4I1; four-hour pre-incubation with compound; 1 mM each Phe, Tyr, Trp; ten-point titration
In short: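 H2O2 output was coupled to resorufin fluorescence (ex 544/em 590) via 0.05 mM Amplex Red and 1 U/mL HRP. Substrate: Phe, Tyr, Trp at 1 mM each; enzyme 1 nM, 4 h compound pre-incubation, 120 min reaction, pH 7.0 Hepes. EC50 by nonlinear four-parameter regression, 1:3 ten-point titration.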

Cc1onc(C(=O)NCc2nnc(-c3ccccc3)s2)c1C [Example 24, 4,5-dimethyl-N-[(5-phenyl-1,3,4-thiadiazol-2-yl)methyl]isoxazole-3-carboxamide]
EC50: 93 nM

CC(C)n1cc(C(=O)NCc2nnc(-c3ccccc3)s2)nn1 [Example 304, 1-isopropyl-N-((5-phenyl-1,3,4-thiadiazol-2-yl)methyl)-1H-1,2,3-triazole-4-carboxamide]
EC50: 4 nM

CC(C)Cc1cc(C(=O)NCc2nnc(-c3ccccc3)s2)[nH]n1 [Example 21, 3-isobutyl-N-((5-phenyl-1,3,4-thiadiazol-2-yl)methyl)-1H-pyrazole-5-carboxamide]
EC50: 209 nM

Cc1ccc(-n2cc(C(=O)NCc3nnc(-c4ccccc4)s3)nn2)c(Cl)n1 [Example 278, 1-(2-chloro-6-methylpyridin-3-yl)-N-((5-phenyl-1,3,4-thiadiazol-2-yl)methyl)-1H-1,2,3-triazole-4-carboxamide]
EC50: 15 nM

CCn1ccc(C(=O)NCc2nnc(-c3ccccc3)s2)n1 [Example 52, 1-ethyl-N-[(5-phenyl-1,3,4-thiadiazol-2-yl)methyl]pyrazole-3-carboxamide]
EC50: 128 nM

Cc1n[nH]c(C(=O)NCc2nnc(-c3ccccc3)s2)n1 [Example 27, 3-methyl-N-((5-phenyl-1,3,4-thiadiazol-2-yl)methyl)-1H-1,2,4-triazole-5-carboxamide]
EC50: 292 nM

O=C(NCc1nnc(-c2ccccc2)s1)c1cc(C2CC2)n[nH]1 [Example 33, 3-cyclopropyl-N-[(5-phenyl-1,3,4-thiadiazol-2-yl)methyl]-1H-pyrazole-5-carboxamide]
EC50: 170 nM

O=C(NCc1nnc(-c2ccccc2)s1)c1cn([C@H]2COC[C@@H]2F)nn1 [Example 199, 1-((3S,4R)-4-fluorotetrahydrofuran-3-yl)-N-((5-phenyl-1,3,4-thiadiazol-2-yl)methyl)-1H-1,2,3-triazole-4-carboxamide]
EC50: 140 nM

Cc1ccc(-n2cc(C(=O)NCc3nnc(-c4ccccc4Cl)s3)nn2)c(C)n1 [Example 112, N-((5-(2-chlorophenyl)-1,3,4-thiadiazol-2-yl)methyl)-1-(2,6-dimethylpyridin-3-yl)-1H-1,2,3-triazole-4-carboxamide]
EC50: 82 nM

Cc1ccc(-n2cc(C(=O)NCc3nnc(-c4ccccc4)s3)nn2)c(Br)n1 [Example 279, 1-(2-bromo-6-methylpyridin-3-yl)-N-((5-phenyl-1,3,4-thiadiazol-2-yl)methyl)-1H-1,2,3-triazole-4-carboxamide]
EC50: 8 nM

O=C(NCc1cc(-c2ccccc2)no1)c1cn(CC(F)F)nn1 [Example 291, 1-(2,2-difluoroethyl)-N-((3-phenylisoxazol-5-yl)methyl)-1H-1,2,3-triazole-4-carboxamide]
EC50: 12 nM

O=C(NCc1nnc(-c2ccccc2)s1)c1cn(CC(F)(F)CO)nn1 [Example 176, 1-(2,2-difluoro-3-hydroxypropyl)-N-((5-phenyl-1,3,4-thiadiazol-2-yl)methyl)-1H-1,2,3-triazole-4-carboxamide]
EC50: 7 nM

O=C(NCc1nnc(-c2ccccc2)s1)c1cn(CC2(O)CCC2)nn1 [Example 137, 1-((1-hydroxycyclobutyl)methyl)-N-((5-phenyl-1,3,4-thiadiazol-2-yl)methyl)-1H-1,2,3-triazole-4-carboxamide]
EC50: 574 nM

O=C(NCc1nnc(-c2ccccc2)s1)c1cn(CC2(F)CC2)nn1 [Example 150, 1-((1-fluorocyclopropyl)methyl)-N-((5-phenyl-1,3,4-thiadiazol-2-yl)methyl)-1H-1,2,3-triazole-4-carboxamide]
EC50: 4 nM

CC(C)(C(N)=O)n1cc(C(=O)NCc2nnc(-c3ccccc3)s2)nn1 [Example 312, 1-(1-amino-2-methyl-1-oxopropan-2-yl)-N-((5-phenyl-1,3,4-thiadiazol-2-yl)methyl)-1H-1,2,3-triazole-4-carboxamide]
EC50: 12 nM

Cc1cc(C)c(C(=O)NCc2nnc(-c3ccccc3)s2)o1 [Example 57, 3,5-dimethyl-N-[(5-phenyl-1,3,4-thiadiazol-2-yl)methyl]furan-2-carboxamide]
EC50: 974 nM

N#CCCCn1cc(C(=O)NCc2nnc(-c3ccccc3)s2)nn1 [Example 84, 1-(3-cyanopropyl)-N-((5-phenyl-1,3,4-thiadiazol-2-yl)methyl)-1H-1,2,3-triazole-4-carboxamide]
EC50: 52 nM

C[C@H](C(F)F)n1cc(C(=O)NCc2nnc(-c3ccccc3)s2)nn1 [Example 168, (R)-1-(1,1-difluoropropan-2-yl)-N-((5-phenyl-1,3,4-thiadiazol-2-yl)methyl)-1H-1,2,3-triazole-4-carboxamide]
EC50: 7 nM

Cc1ccc(-n2cc(C(=O)NCc3ccc(-c4ccsc4)nn3)nn2)c(C)n1 [Example 118, 1-(2,6-dimethylpyridin-3-yl)-N-((6-(thiophen-3-yl)pyridazin-3-yl)methyl)-1H-1,2,3-triazole-4-carboxamide]
EC50: 31 nM

O=C(NCc1nnc(-c2ccccc2)s1)c1cn(-c2ccncc2)nn1 [Example 240, N-((5-phenyl-1,3,4-thiadiazol-2-yl)methyl)-1-(pyridin-4-yl)-1H-1,2,3-triazole-4-carboxamide]
EC50: 163 nM

CNC(=O)C(C)(C)n1cc(C(=O)NCc2nnc(-c3ccccc3)s2)nn1 [Example 322, 1-(2-methyl-1-(methylamino)-1-oxopropan-2-yl)-N-((5-phenyl-1,3,4-thiadiazol-2-yl)methyl)-1H-1,2,3-triazole-4-carboxamide]
EC50: 26 nM

Cn1cc(C(=O)NCc2nnc(-c3cncs3)s2)nn1 [Example 297, 1-methyl-N-((5-(thiazol-5-yl)-1,3,4-thiadiazol-2-yl)methyl)-1H-1,2,3-triazole-4-carboxamide]
EC50: 79 nM

Cc1ccc(-n2cc(C(=O)NCc3nnc(-c4ccccc4)s3)nn2)c(C#N)n1 [Example 337, 1-(2-cyano-6-methylpyridin-3-yl)-N-((5-phenyl-1,3,4-thiadiazol-2-yl)methyl)-1H-1,2,3-triazole-4-carboxamide]
EC50: 53 nM

O=C(NCc1nnc(-c2ccccc2)s1)c1cn(CCO)nn1 [Example 233, 1-(2-hydroxyethyl)-N-((5-phenyl-1,3,4-thiadiazol-2-yl)methyl)-1H-1,2,3-triazole-4-carboxamide]
EC50: 10 nM

O=C(NCc1nnc(-c2ccccc2)s1)c1nnn2ccccc12 [Example 239, N-((5-phenyl-1,3,4-thiadiazol-2-yl)methyl)-[1,2,3]triazolo[1,5-a]pyridine-3-carboxamide]
EC50: 591 nM

Cc1ccc(-n2cc(C(=O)NCc3cc(-c4ccccc4)no3)nn2)c(C)n1 [Example 234, 1-(2,6-dimethylpyridin-3-yl)-N-((3-phenylisoxazol-5-yl)methyl)-1H-1,2,3-triazole-4-carboxamide]
EC50: 9 nM

N#CC1(n2cc(C(=O)NCc3nnc(-c4ccccc4)s3)nn2)CCOC1 (stereo not shown) [Example 197, 1-(3-cyanotetrahydrofuran-3-yl)-N-((5-phenyl-1,3,4-thiadiazol-2-yl)methyl)-1H-1,2,3-triazole-4-carboxamide]
EC50: 28 nM

O=C(NCc1nnc(-c2ccccc2)s1)c1cn([C@@H]2C[C@@H]2C(F)F)nn1 (single isomer, unassigned) [Example 145, cis-1-(-2-(difluoromethyl)cyclopropyl]-N-[(5-phenyl-1,3,4-thiadiazol-2-yl)methyl]-1H-1,2,3-triazole-4-carboxamide]
EC50: 5 nM
